31 molecules from US20240383908A1, “SYNTHESIS AND APPLICATION OF PHOSPHATASE DEGRADER” (HINOVA PHARMACEUTICALS INC., priority 2021, published 2024) can be followed below.

Where a name gives a salt, the structure may show the parent alone. Bounds are passed on as bounds.

The experiment has as its target T1, SHP2 protein (Homo sapiens, UniProt Q06124).
T1 sequence (Q06124 1-593): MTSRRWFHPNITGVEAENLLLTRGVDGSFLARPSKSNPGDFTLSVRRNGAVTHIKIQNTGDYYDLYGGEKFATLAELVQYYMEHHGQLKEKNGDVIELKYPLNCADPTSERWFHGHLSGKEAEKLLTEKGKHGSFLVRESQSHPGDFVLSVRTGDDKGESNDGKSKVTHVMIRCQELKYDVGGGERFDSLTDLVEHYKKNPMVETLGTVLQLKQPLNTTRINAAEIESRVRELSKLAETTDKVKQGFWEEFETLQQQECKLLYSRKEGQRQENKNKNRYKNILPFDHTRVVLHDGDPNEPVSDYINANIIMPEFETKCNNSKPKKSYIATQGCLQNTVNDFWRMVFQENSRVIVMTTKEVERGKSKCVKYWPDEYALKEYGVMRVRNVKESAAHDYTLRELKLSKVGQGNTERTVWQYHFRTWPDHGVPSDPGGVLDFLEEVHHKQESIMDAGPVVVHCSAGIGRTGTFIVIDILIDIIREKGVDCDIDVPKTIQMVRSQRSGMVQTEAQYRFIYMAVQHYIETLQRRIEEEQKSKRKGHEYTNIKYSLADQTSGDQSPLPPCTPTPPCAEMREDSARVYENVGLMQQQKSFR
Briefly: Degradation activity on SHP2 protein in MIA Paca-2 cells (Western blot, DC50). The class given is cell-based. On the set-up: endogenous in cells; host or cells: MIA Paca-2 cells. The settings on record: read-out: Degradation activity for differenct cell lines MIA Paca-2 (DC50). In short, it runs like this: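 DC50 is the concentration degrading 50% of SHP2 relative to DMSO control. It was derived by fitting Western blot band densitometry (anti-SHP2, GAPDH reference) from cells exposed 24 h to 0.1–100 nM compound in 0.1% DMSO.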
One may read the DC50 as the concentration at which degradation of the target reaches its halfway point. With `C[C@@H]1OCC2(CCN(c3cnc(Sc4cccc(NC(=O)c5ccc(N6CCC(N7CC=C(c8ccc(C(=O)NCc9ccc%10c(c9)CN(C9CCC(=O)NC9=O)C%10=O)cc8Cl)CC7)CC6)c(F)c5)c4)cn3)CC2)[C@@H]1N` (stereo partly shown) [Compound 459], the DC50 is below 100 nM.
With `C[C@@H]1OCC2(CCN(c3cnc(Sc4cccc(NC(=O)c5ccc(N6CCC(N7CC=C(c8cnc(C(=O)NCc9ccc%10c(c9)CN(C9CCC(=O)NC9=O)C%10=O)cc8Cl)CC7)CC6)c(F)c5)c4)cn3)CC2)[C@@H]1N` (stereo partly shown) [Compound 460] the figure was below 100 nM; with `Cc1nc(C(=O)NCc2ccc3c(c2)CN(C2CCC(=O)NC2=O)C3=O)ccc1C1=CCN(C2CCN(c3ccc(C(=O)Nc4cccc(Sc5cnc(N6CCC7(CC6)CO[C@@H](C)[C@H]7N)cn5)c4)cc3F)CC2)CC1` (stereo partly drawn) [Compound 461, N-{[2-(2,6-oxohexahydropyridin-3-yl)-1-oxo-2,3-dihydro-1H-isoindol-5-yl]methyl}-5-(1-{1-[2-fluoro-4-({[3-({5-[(3S,4S)-4-amino-3-methyl-8-aza-2-oxaspiro[4.5]decan-8-yl]pyrazin-2-yl}thio)phenyl]amino}carbonyl)phenyl]hexahydropyridine-4-yl}-1,2,3,6-tetrahydropyridin-4-yl)-6-methylpyridine-2-formamide hydrochloride], below 100 nM; with `Cc1cc(C2=CCN(C3CCN(c4ccc(C(=O)Nc5cccc(Sc6cnc(N7CCC8(CC7)CO[C@@H](C)[C@H]8N)cn6)c5)cc4F)CC3)CC2)cnc1C(=O)NCc1ccc2c(c1)CN(C1CCC(=O)NC1=O)C2=O` (stereo partly shown) [Compound 462], above 1000 nM.
With `C[C@@H]1OCC2(CCN(c3cnc(Sc4cccc(NC(=O)c5ccc(N6CCC(N7CC=C(c8ccc(C(=O)NCc9ccc%10c(c9)CN(C9CCC(=O)NC9=O)C%10=O)nc8Cl)CC7)CC6)c(F)c5)c4)cn3)CC2)[C@@H]1N` (stereo partly shown) [Compound 463], the DC50 is above 1000 nM.
The figure for `C[C@@H]1OCC2(CCN(c3cnc(Sc4cccc(NC(=O)c5ccc(N6CCC(N7CC=C(c8cnc(C(=O)NCc9ccc%10c(c9)CN(C9CCC(=O)NC9=O)C%10=O)c(F)c8)CC7)CC6)c(F)c5)c4)cn3)CC2)[C@@H]1N` (stereo partly shown) [Compound 464] is below 100 nM; for `C[C@@H]1OCC2(CCN(c3cnc(Sc4cccc(NC(=O)c5ccc(N6CCC(N7CC=C(c8ncc(C(=O)NCc9ccc%10c(c9)CN(C9CCC(=O)NC9=O)C%10=O)cc8F)CC7)CC6)c(F)c5)c4)cn3)CC2)[C@@H]1N` (stereo partly shown) [Compound 466] it is below 100 nM; for `Cc1cc(N2CCC(N3CC=C(c4ccc(C(=O)NCc5ccc6c(c5)CN(C5CCC(=O)NC5=O)C6=O)nc4F)CC3)CC2)ccc1C(=O)Nc1cccc(Sc2cnc(N3CCC(C)(N)CC3)cn2)c1` (stereo not shown) [Compound 468] it is below 100 nM.
With `Cc1cc(C(=O)Nc2cccc(Sc3cnc(N4CCC(C)(N)CC4)cn3)c2)ccc1N1CCC(N2CC=C(c3ccc(C(=O)NCc4ccc5c(c4)CN(C4CCC(=O)NC4=O)C5=O)nc3F)CC2)CC1` (stereo not shown) [Compound 469] the figure was 100 to 1000 nM.
With `Cc1cc(C(=O)NCc2ccc3c(c2)CN(C2CCC(=O)NC2=O)C3=O)ncc1C1=CCN(C2CCN(c3ccc(C(=O)Nc4cccc(Sc5cnc(N6CCC(C)(N)CC6)cn5)c4)cc3F)CC2)CC1` (stereo not shown) [Compound 470] the figure was 100 to 1000 nM.
For the molecule `CC1(N)CCN(c2cnc(Sc3cccc(NC(=O)c4cc(F)c(N5CCC(N6CC=C(c7ccc(C(=O)NCc8ccc9c(c8)CN(C8CCC(=O)NC8=O)C9=O)nc7)CC6)CC5)c(F)c4)c3)cn2)CC1` (stereo not shown) [Compound 471], the DC50 lay in the range of 100 to 1000 nM.
Turning to `C[C@@H]1OCC2(CCN(c3cnc(Sc4cccc(NC(=O)c5ccc(N6CCC(N7CC=C(c8ccc(C(=O)NCc9ccc%10c(c9)CN(C9CCC(=O)NC9=O)C%10=O)c(F)n8)CC7)CC6)c(F)c5)c4)cn3)CC2)[C@@H]1N` (stereo partly shown) [Compound 472], the DC50 fell in the range of 100 to 1000 nM.
With `C[C@@H]1OCC2(CCN(c3cnc(Sc4cccc(NC(=O)C5CC6(C5)CC(N5CC=C(c7ccc(C(=O)NCc8ccc9c(c8)CN(C8CCC(=O)NC8=O)C9=O)nc7)CC5)C6)c4)cn3)CC2)[C@@H]1N` (stereo partly shown) [Compound 473] the figure was below 100 nM.
The figure for `C[C@@H]1OCC2(CCN(c3cnc(Sc4cccc(NC(=O)C5CCC(N6CC=C(c7ccc(C(=O)NCc8ccc9c(c8)CN(C8CCC(=O)NC8=O)C9=O)nc7)CC6)CC5)c4)cn3)CC2)[C@@H]1N` (stereo partly shown) [Compound 474] is below 100 nM; for `C[C@@H]1OCC2(CCN(c3cnc(Sc4cccc(NC(=O)C5CC(N6CCN(c7ccc(C(=O)NCc8ccc9c(c8)CN(C8CCC(=O)NC8=O)C9=O)nn7)CC6)C5)c4)cn3)CC2)[C@@H]1N` (stereo partly shown) [Compound 475] it is above 1000 nM; for `C[C@@H]1OCC2(CCN(c3cnc(Sc4cccc(NC(=O)C5CCC(N6CCN(c7ccc(C(=O)NCc8ccc9c(c8)CN(C8CCC(=O)NC8=O)C9=O)nn7)CC6)CC5)c4)cn3)CC2)[C@@H]1N` (stereo partly shown) [Compound 476] it is above 1000 nM.
The figure for `C[C@@H]1OCC2(CCN(c3cnc(Sc4cccc(NC(=O)C5CC(N6CC=C(c7ccc(C(=O)NCc8ccc9c(c8)CN(C8CCC(=O)NC8=O)C9=O)nc7)CC6)C5)c4)cn3)CC2)[C@@H]1N` (stereo partly shown) [Compound 477] is below 100 nM; for `C[C@@H]1OCC2(CCN(c3cnc(Sc4cccc(NC(=O)c5ccc(N6CCC(N7CC=C(c8ccc(C(=O)NCc9ccc%10c(c9)CN(C9CCC(=O)NC9=O)C%10=O)c(Cl)c8)CC7)CC6)c(F)c5)c4)cn3)CC2)[C@@H]1N` (stereo partly shown) [Compound 479] it is 100 to 1000 nM.
With `Cc1cc(C(=O)NCc2ccc3c(c2)CN(C2CCC(=O)NC2=O)C3=O)ncc1C1=CCN(C2CCN(c3ccc(C(=O)Nc4cccc(Sc5cnc(N6CCC(C)(N)CC6)cn5)c4)cc3)CC2)CC1` (stereo not shown) [Compound 480], the DC50 was below 100 nM.
Take `CC1(N)CCN(c2cnc(Sc3cccc(NC(=O)c4ccc(N5CCC(N6CC=C(c7ccc(C(=O)NCc8ccc9c(c8)CN(C8CCC(=O)NC8=O)C9=O)nc7F)CC6)CC5)cc4)c3)cn2)CC1` (stereo not shown) [Compound 481]: the DC50 was below 100 nM.
With `C[C@@H]1OCC2(CCN(c3cnc(Sc4cccc(NC(=O)c5ccc(N6CCC(N7CC=C(c8ccc(C(=O)NCc9ccc%10c(c9)CN(C9CCC(=O)NC9=O)C%10=O)nc8F)CC7)CC6)c(F)c5)c4)cn3)CC2)[C@@H]1N` (stereo partly drawn) [Compound 483, 1′-(1-(4-((3-((5-((3S,4S)-4-amino-3-methyl-2-oxa-8-azaspiro[4.5]decan-8-yl)pyrazin-2-yl)thio)phenyl)aminoformyl)-2-fluorophenyl)piperidin-4-yl)-N-((2-(2,6-dioxopiperidin-3-yl)-1-oxoisoindol-5-yl)methyl)-2-fluoro-1′,2′,3′,6′-tetrahydro-[3,4′-bipyridine]-6-formamide hydrochloride] the figure was below 100 nM; with `CC1(N)CCN(c2cnc(Sc3cccc(NC(=O)c4ccc(N5CCC(N6CCN(c7cnc(C(=O)NCc8ccc9c(c8)CN(C8CCC(=O)NC8=O)C9=O)cc7Cl)CC6)CC5)nc4)c3)cn2)CC1` (stereo not shown) [Compound 484], below 100 nM.
On to `Cc1cc(C(=O)Nc2cccc(Sc3cnc(N4CCC(C)(N)CC4)cn3)c2)cc(C)c1N1CCC(N2CC=C(c3ccc(C(=O)NCc4ccc5c(c4)CN(C4CCC(=O)NC4=O)C5=O)nc3)CC2)CC1` (stereo not shown) [Compound 486], for which the DC50 is below 100 nM.
The figure for `Cc1cc(C2=CCN(C3CCN(c4ccc(C(=O)Nc5cccc(Sc6cnc(N7CCC8(CC7)CO[C@@H](C)[C@H]8N)cn6)c5)cc4F)CC3)CC2)ncc1C(=O)NCc1ccc2c(c1)CN(C1CCC(=O)NC1=O)C2=O` (stereo partly shown) [Compound 488] is below 100 nM; for `C[C@@H]1OCC2(CCN(c3cnc(Sc4cccc(NC(=O)C5CCC(N6CC7(CCN(c8ccc(C(=O)NCc9ccc%10c(c9)CN(C9CCC(=O)NC9=O)C%10=O)cn8)C7)C6)CC5)c4)cn3)CC2)[C@@H]1N` (stereo partly shown) [Compound 489] it is above 1000 nM; for `C[C@@H]1OCC2(CCN(c3cnc(Sc4cccc(NC(=O)c5ccc(CN6CC7(CCN(c8ccc(C(=O)NCc9ccc%10c(c9)CN(C9CCC(=O)NC9=O)C%10=O)cn8)C7)C6)cc5)c4)cn3)CC2)[C@@H]1N` (stereo partly shown) [Compound 490] it is 100 to 1000 nM.
In the case of `CC1(N)CCN(c2cnc(Sc3cccc(NC(=O)c4ccc(N5CCC(N6CCN(c7nnc(C(=O)NCc8ccc9c(c8)CN(C8CCC(=O)NC8=O)C9=O)cc7Cl)CC6)CC5)cc4)c3)cn2)CC1` (stereo not shown) [Compound 491], the DC50 was above 1000 nM.
Turning to `CC1(N)CCN(c2cnc(Sc3cccc(NC(=O)c4ccc(N5CCC(N6CCN(c7nnc(C(=O)NCc8ccc9c(c8)CN(C8CCC(=O)NC8=O)C9=O)cc7Cl)CC6)CC5)nc4)c3)cn2)CC1` (stereo not shown) [Compound 492], the DC50 is below 100 nM.
`CC1(N)CCN(c2cnc(Sc3cccc(NC(=O)c4ccc(N5CCC(N6CCN(c7nnc(C(=O)NCc8ccc9c(c8)CN(C8CCC(=O)NC8=O)C9=O)cc7Cl)CC6)CC5)c(F)c4)c3)cn2)CC1` (stereo not shown) [Compound 493]: the 50% degradation concentration (DC50) was below 100 nM.
The figure for `CC1(N)CCN(c2cnc(Sc3cccc(NC(=O)c4ccc(N5CCC(N6CCN(c7nnc(C(=O)NCc8ccc9c(c8)CN(C8CCC(=O)NC8=O)C9=O)cc7Cl)CC6)CC5)cc4F)c3)cn2)CC1` (stereo not shown) [Compound 494] is below 100 nM; for `Cc1cc(C(=O)Nc2cccc(Sc3cnc(N4CCC(C)(N)CC4)cn3)c2)ccc1N1CCC(N2CCN(c3cnc(C(=O)NCc4ccc5c(c4)CN(C4CCC(=O)NC4=O)C5=O)cc3Cl)CC2)CC1` (stereo not shown) [Compound 495] it is below 100 nM.
